# Test results from ChEMBL document CHEMBL3885881, “DrugMatrix”.
# Species on record: Rattus norvegicus
# Assay: DrugMatrix - Regimen: Daily Repeat
# Format: toxicity, organism-based, Sprague-Dawley
# Parameters: regimen Daily Repeat, gender Male, age 6-8 weeks
# Settings: in vivo, po, route oral GAVAGE, vehicle 60 % PEG400; for URIC ACID / ALANINE AMINOTRANSFERASE / ALBUMIN / ALKALINE PHOSPHATASE / ASPARTATE AMINOTRANSFERASE / BLOOD UREA NITROGEN / CARBON DIOXIDE / CHLORIDE / CHOLESTEROL / CREATINE PHOSPHOKINASE / CREATININE / GLUCOSE / LACTATE DEHYDROGENASE / LIPASE / PHOSPHORUS / POTASSIUM / SODIUM / TOTAL BILIRUBIN / TOTAL PROTEIN: tissue Plasma; for ABSOLUTE BASOPHIL / ABSOLUTE EOSINOPHIL / ABSOLUTE LYMPHOCYTE / ABSOLUTE MONOCYTE / ABSOLUTE SEGMENTED NEUTROPHIL / BASOPHIL / EOSINOPHIL / ERYTHROCYTE COUNT / HEMATOCRIT / HEMOGLOBIN / LEUKOCYTE COUNT / LYMPHOCYTE / MEAN CORPUSCULAR HEMOGLOBIN / MEAN CORPUSCULAR HEMOGLOBIN CONCENTRATION / MEAN CORPUSCULAR VOLUME / MONOCYTE / NEUTROPHIL / NUCLEATED RED BLOOD CELLS / PLATELET COUNT: tissue Blood
# [1] = 0.001 mg/kg, 120 h, dose level Low, time 5 day
# [2] = 0.1 mg/kg, 72 h, dose level High, time 3 day
# [3] = 0.1 mg/kg, 120 h, dose level High, time 5 day
smiles,measurement,setting,value
N[C@@H](Cc1cc(I)c(Oc2ccc(O)c(I)c2)c(I)c1)C(=O)O [LIOTHYRONINE],URIC ACID,"0.001 mg/kg, 72 h, dose level Low, time 3 day",1.37 mg/dL
same,ABSOLUTE BASOPHIL,[1],0 CELLS/uL
same,ABSOLUTE EOSINOPHIL,[1],0 CELLS/uL
same,ABSOLUTE LYMPHOCYTE,[1],5590 CELLS/uL
same,ABSOLUTE MONOCYTE,[1],0 CELLS/uL
same,ABSOLUTE SEGMENTED NEUTROPHIL,[1],543.33 CELLS/uL
same,BASOPHIL,[1],0%
same,EOSINOPHIL,[1],0%
same,ERYTHROCYTE COUNT,[1],5.59 x10E6/uL
same,HEMATOCRIT,[1],33.3%
same,HEMOGLOBIN,[1],12.43 G/DL
same,LEUKOCYTE COUNT,[1],6.13 x10E3/uL
same,LYMPHOCYTE,[1],91%
same,MEAN CORPUSCULAR HEMOGLOBIN,[1],22.27 pg
same,MEAN CORPUSCULAR HEMOGLOBIN CONCENTRATION,[1],37.37 G/DL
same,MEAN CORPUSCULAR VOLUME,[1],59.57 fL
same,MONOCYTE,[1],0%
same,NEUTROPHIL,[1],9%
same,NUCLEATED RED BLOOD CELLS,[1],0.67 /100WBC
same,PLATELET COUNT,[1],972.33 x10E3/uL
same,ALANINE AMINOTRANSFERASE,[1],52.67 u/L
same,ALBUMIN,[1],4.57 G/DL
same,ALKALINE PHOSPHATASE,[1],421 u/L
same,ASPARTATE AMINOTRANSFERASE,[1],80.33 u/L
same,BLOOD UREA NITROGEN,[1],15.33 mg/dL
same,CARBON DIOXIDE,[1],31 mmol/L
same,CHLORIDE,[1],100.33 MEQ/L
same,CHOLESTEROL,[1],86 mg/dL
same,CREATINE PHOSPHOKINASE,[1],257.67 u/L
same,CREATININE,[1],0.19 mg/dL
same,GLUCOSE,[1],174.33 mg/dL
same,LACTATE DEHYDROGENASE,[1],98.33 u/L
same,LIPASE,[1],8.33 u/L
same,PHOSPHORUS,[1],12.67 mg/dL
same,POTASSIUM,[1],6.56 MEQ/L
same,SODIUM,[1],144.9 MEQ/L
same,TOTAL BILIRUBIN,[1],0.1 mg/dL
same,URIC ACID,[1],2.23 mg/dL
same,ABSOLUTE BASOPHIL,[2],0 CELLS/uL
same,ABSOLUTE EOSINOPHIL,[2],0 CELLS/uL
same,ABSOLUTE LYMPHOCYTE,[2],13461.67 CELLS/uL
same,ABSOLUTE MONOCYTE,[2],261.67 CELLS/uL
same,ABSOLUTE SEGMENTED NEUTROPHIL,[2],1443.33 CELLS/uL
same,BASOPHIL,[2],0%
same,EOSINOPHIL,[2],0%
same,ERYTHROCYTE COUNT,[2],6.02 x10E6/uL
same,HEMATOCRIT,[2],37%
same,HEMOGLOBIN,[2],14.37 G/DL
same,LEUKOCYTE COUNT,[2],15.17 x10E3/uL
same,LYMPHOCYTE,[2],89.33%
same,MEAN CORPUSCULAR HEMOGLOBIN,[2],23.9 pg
same,MEAN CORPUSCULAR HEMOGLOBIN CONCENTRATION,[2],38.8 G/DL
same,MEAN CORPUSCULAR VOLUME,[2],61.5 fL
same,MONOCYTE,[2],1.67%
same,NEUTROPHIL,[2],9%
same,NUCLEATED RED BLOOD CELLS,[2],0 /100WBC
same,PLATELET COUNT,[2],889 x10E3/uL
same,ALANINE AMINOTRANSFERASE,[2],70.67 u/L
same,ALBUMIN,[2],4.1 G/DL
same,ALKALINE PHOSPHATASE,[2],525 u/L
same,ASPARTATE AMINOTRANSFERASE,[2],112 u/L
same,BLOOD UREA NITROGEN,[2],14.67 mg/dL
same,CARBON DIOXIDE,[2],26.67 mmol/L
same,CHLORIDE,[2],104 MEQ/L
same,CHOLESTEROL,[2],88 mg/dL
same,CREATINE PHOSPHOKINASE,[2],402.67 u/L
same,CREATININE,[2],0.19 mg/dL
same,GLUCOSE,[2],148.67 mg/dL
same,LACTATE DEHYDROGENASE,[2],156.67 u/L
same,LIPASE,[2],14 u/L
same,PHOSPHORUS,[2],15.67 mg/dL
same,POTASSIUM,[2],7.38 MEQ/L
same,SODIUM,[2],147 MEQ/L
same,TOTAL BILIRUBIN,[2],0.13 mg/dL
same,TOTAL PROTEIN,[2],5.67 G/DL
same,URIC ACID,[2],2.47 mg/dL
same,ABSOLUTE BASOPHIL,[3],0 CELLS/uL
same,ABSOLUTE EOSINOPHIL,[3],0 CELLS/uL
same,ABSOLUTE LYMPHOCYTE,[3],3351.33 CELLS/uL
same,ABSOLUTE MONOCYTE,[3],14.67 CELLS/uL
same,ABSOLUTE SEGMENTED NEUTROPHIL,[3],800.67 CELLS/uL
same,BASOPHIL,[3],0%
same,EOSINOPHIL,[3],0%
same,ERYTHROCYTE COUNT,[3],5.59 x10E6/uL
same,HEMATOCRIT,[3],34.2%
same,HEMOGLOBIN,[3],12.77 G/DL
same,LEUKOCYTE COUNT,[3],4.17 x10E3/uL
same,LYMPHOCYTE,[3],80.33%
same,MEAN CORPUSCULAR HEMOGLOBIN,[3],22.83 pg
same,MEAN CORPUSCULAR HEMOGLOBIN CONCENTRATION,[3],37.33 G/DL
same,MEAN CORPUSCULAR VOLUME,[3],61.17 fL
same,MONOCYTE,[3],0.33%
same,NEUTROPHIL,[3],19.33%
same,NUCLEATED RED BLOOD CELLS,[3],0.33 /100WBC
same,PLATELET COUNT,[3],792.67 x10E3/uL
same,ALANINE AMINOTRANSFERASE,[3],69.67 u/L
same,ALBUMIN,[3],4.13 G/DL
same,ALKALINE PHOSPHATASE,[3],576 u/L
same,ASPARTATE AMINOTRANSFERASE,[3],110 u/L
same,BLOOD UREA NITROGEN,[3],12.67 mg/dL
same,CARBON DIOXIDE,[3],32.67 mmol/L
same,CHLORIDE,[3],103.33 MEQ/L
same,CHOLESTEROL,[3],94.67 mg/dL
same,CREATINE PHOSPHOKINASE,[3],218 u/L
same,CREATININE,[3],0.12 mg/dL
same,GLUCOSE,[3],132.67 mg/dL
same,LACTATE DEHYDROGENASE,[3],105.33 u/L
same,LIPASE,[3],12.33 u/L
same,PHOSPHORUS,[3],13.73 mg/dL
same,POTASSIUM,[3],7.47 MEQ/L
same,SODIUM,[3],149.43 MEQ/L
same,TOTAL BILIRUBIN,[3],0.13 mg/dL
same,TOTAL PROTEIN,[3],5.8 G/DL
same,URIC ACID,[3],2.43 mg/dL
